ChEMBL document CHEMBL3593240, “Structure-based development of nitroxoline derivatives as potential multifunctional anti-Alzheimer agents” (Bioorg Med Chem, 2015)
Activity calls are given as the source filed them. The calls are words filed in the database; no cut-off is given here.

Columns and labels:
[1] = Metal chelating activity of the compound assessed as Co2+ complex formation at 30 uM after 10 mins by UV-vis spectrometry; type: physicochemical
[2] = Solubility of the compound at 30 uM; type: physicochemical
[3] = molecular target: Amyloid-beta precursor protein (Homo sapiens) (UniProt P05067); assay: Inhibition of human recombinant amyloid beta (1 to 42) self aggregation at 10 uM after 12 hrs by dot-blot assay
Sequence of Amyloid-beta precursor protein (Homo sapiens) (P05067 whole entry): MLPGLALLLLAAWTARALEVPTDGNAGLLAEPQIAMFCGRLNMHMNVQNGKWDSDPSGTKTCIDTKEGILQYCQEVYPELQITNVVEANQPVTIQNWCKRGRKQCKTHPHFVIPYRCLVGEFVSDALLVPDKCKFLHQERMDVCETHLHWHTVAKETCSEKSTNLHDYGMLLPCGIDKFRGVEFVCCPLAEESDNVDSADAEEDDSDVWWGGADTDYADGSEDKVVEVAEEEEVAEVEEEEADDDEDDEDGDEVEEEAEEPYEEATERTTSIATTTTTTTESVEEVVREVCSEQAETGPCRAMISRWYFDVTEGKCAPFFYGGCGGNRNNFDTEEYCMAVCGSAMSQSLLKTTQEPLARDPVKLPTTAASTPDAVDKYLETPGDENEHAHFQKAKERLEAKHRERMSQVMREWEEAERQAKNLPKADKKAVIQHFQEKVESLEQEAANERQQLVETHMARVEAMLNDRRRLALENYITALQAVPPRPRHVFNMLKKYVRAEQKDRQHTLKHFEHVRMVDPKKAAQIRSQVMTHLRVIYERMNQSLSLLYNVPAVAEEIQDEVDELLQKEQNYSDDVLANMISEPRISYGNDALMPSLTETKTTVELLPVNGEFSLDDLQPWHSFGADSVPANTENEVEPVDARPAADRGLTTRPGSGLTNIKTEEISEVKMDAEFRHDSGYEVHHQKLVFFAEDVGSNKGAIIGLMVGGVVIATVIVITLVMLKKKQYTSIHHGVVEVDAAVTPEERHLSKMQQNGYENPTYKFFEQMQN

[4] = Metal chelating activity of the compound assessed as Zn2+ complex formation at 30 uM after 10 mins by UV-vis spectrometry; type: physicochemical
[5] = Metal chelating activity of the compound assessed as Cu2+ complex formation at 30 uM after 10 mins by UV-vis spectrometry; type: physicochemical
[6] = Antioxidant activity assessed as DPPH radical scavenging activity; type: physicochemical
Cholinesterase [7] = molecular target: T1, Cholinesterase (Homo sapiens, UniProt P06276); assay: Inhibition of human recombinant BChE using butyrylthiocholine iodide as substrate assessed as residual activity at 30 uM after 5 mins by Ellman's method relative to control
T1 sequence (P06276 whole entry): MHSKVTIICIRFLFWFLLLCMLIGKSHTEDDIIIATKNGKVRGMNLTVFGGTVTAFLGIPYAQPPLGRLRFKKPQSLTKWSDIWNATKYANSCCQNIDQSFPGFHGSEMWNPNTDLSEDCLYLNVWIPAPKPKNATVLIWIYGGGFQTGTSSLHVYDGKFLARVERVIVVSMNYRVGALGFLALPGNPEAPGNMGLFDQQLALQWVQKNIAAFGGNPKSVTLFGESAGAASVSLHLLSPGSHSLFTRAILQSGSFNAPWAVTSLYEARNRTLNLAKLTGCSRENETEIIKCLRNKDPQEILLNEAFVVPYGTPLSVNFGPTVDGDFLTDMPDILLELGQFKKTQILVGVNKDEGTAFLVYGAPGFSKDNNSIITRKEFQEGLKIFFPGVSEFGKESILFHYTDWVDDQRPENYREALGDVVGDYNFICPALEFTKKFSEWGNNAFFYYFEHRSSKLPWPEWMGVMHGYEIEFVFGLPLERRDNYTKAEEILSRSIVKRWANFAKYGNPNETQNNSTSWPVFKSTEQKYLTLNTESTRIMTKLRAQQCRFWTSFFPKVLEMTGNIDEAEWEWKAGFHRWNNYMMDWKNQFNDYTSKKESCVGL

[8] = Metal chelating activity of the compound assessed as Fe2+ complex formation at 30 uM after 10 mins by UV-vis spectrometry; type: physicochemical
[9] = molecular target: T2, Acetylcholinesterase (Mus musculus) (UniProt P21836); assay: Inhibition of […] iodide as substrate assessed as residual activity at 30 uM after 5 mins by Ellman's method relative to control
T2 sequence (whole entry): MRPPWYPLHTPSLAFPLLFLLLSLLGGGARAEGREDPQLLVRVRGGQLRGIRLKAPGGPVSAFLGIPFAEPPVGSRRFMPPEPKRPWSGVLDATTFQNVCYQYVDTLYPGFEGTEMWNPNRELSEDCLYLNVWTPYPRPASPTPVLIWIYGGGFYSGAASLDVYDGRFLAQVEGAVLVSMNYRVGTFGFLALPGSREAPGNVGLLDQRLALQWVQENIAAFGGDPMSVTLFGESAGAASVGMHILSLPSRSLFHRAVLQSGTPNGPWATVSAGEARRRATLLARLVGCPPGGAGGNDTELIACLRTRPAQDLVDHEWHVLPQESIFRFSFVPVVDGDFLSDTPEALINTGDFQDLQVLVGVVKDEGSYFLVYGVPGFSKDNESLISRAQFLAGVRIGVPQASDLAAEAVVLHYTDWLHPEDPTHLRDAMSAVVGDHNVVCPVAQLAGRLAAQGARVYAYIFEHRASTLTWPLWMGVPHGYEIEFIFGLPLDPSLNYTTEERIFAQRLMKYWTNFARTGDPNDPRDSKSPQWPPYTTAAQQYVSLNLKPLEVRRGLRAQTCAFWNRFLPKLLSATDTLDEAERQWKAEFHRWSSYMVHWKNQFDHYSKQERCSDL

Cholinesterase [10] = molecular target: T1, Cholinesterase
Description: Inhibition of human recombinant BChE using butyrylthiocholine iodide as substrate after 5 mins by Ellman's method

[11] = Binding affinity to Cu2+ using CuCl2 at 30 uM after 45 mins
[12] = Metal chelating activity of the compound assessed as Ca2+ complex formation at 30 uM after 10 mins by UV-vis spectrometry; type: physicochemical
[13] = Metal chelating activity of the compound assessed as Mg2+ complex formation at 30 uM after 10 mins by UV-vis spectrometry; type: physicochemical
[14] = Binding affinity to Cu2+ using CuCl2 at 30 uM by isothermal titration calorimetry analysis

## COCCN(CC1CCN(Cc2nc3ccccc3s2)CC1)C(=O)c1cc([N+](=O)[O-])c2cccnc2c1O
[1]
  Activity: Active
[2]
  solubility: soluble
[3]
  inhibition: 44.2%
[4]
  Activity: Active
[5]
  Activity: Active
[6]
  EC50: 4140 µM
Cholinesterase [7]
  Ratio: 0.129
[8]
  Activity: Active
[9]
  inhibition: inactive
Cholinesterase [10]
  IC50: 2.14 µM

## O=C(NCC1CCCN(c2nc3ccccc3o2)C1)c1cc([N+](=O)[O-])c2cccnc2c1O (stereo not drawn)
[1]
  Activity: Active
[2]
  solubility: soluble
[3]
  inhibition: 35.5%
[4]
  Activity: Active
[5]
  Activity: Active
[6]
  EC50: 881 µM
Cholinesterase [7]
  Ratio: 0.914
[8]
  Activity: Active
[9]
  inhibition: inactive

## O=C(NCC1CCCN(c2nc3ccccc3s2)C1)c1cc([N+](=O)[O-])c2cccnc2c1O (stereo not drawn)
[1]
  Activity: Active
[2]
  solubility: soluble
[3]
  inhibition: 33.3%
[4]
  Activity: Active
[5]
  Activity: Active
[6]
  EC50: 3830 µM
Cholinesterase [7]
  inhibition: inactive
[8]
  Activity: Active
[9]
  inhibition: inactive

## COCCN(CC1CCCN(C2Cc3ccccc3C2)C1)C(=O)c1ccc2ccccc2c1 (stereo not drawn)
[9]
  inhibition: inactive

## COCCN(CC1CCCN(C2Cc3ccccc3C2)C1)C(=O)c1cc([N+](=O)[O-])c2cccnc2c1O (stereo not drawn)
[1]
  Activity: Active
[2]
  solubility: soluble
[3]
  inhibition: 20.1%
[4]
  Activity: Active
[11]
  Activity: Active
[5]
  Activity: Active
[6]
  EC50: 3450 µM
Cholinesterase [7]
  Ratio: 0.014
[8]
  Activity: Active
[9]
  inhibition: inactive
[12]
  Activity: Not Active
[13]
  Activity: Not Active
Cholinesterase [10]
  IC50: 0.215 µM
[14]
  Kd: 0.25 µM

## O=C(NCC1CCCN(C2Cc3ccccc3C2)C1)c1cc([N+](=O)[O-])c2cccnc2c1O (stereo not drawn)
[1]
  Activity: Active
[2]
  solubility: soluble
[3]
  inhibition: 28.7%
[4]
  Activity: Active
[5]
  Activity: Active
[6]
  EC50: 524 µM
Cholinesterase [7]
  Ratio: 0.747
[8]
  Activity: Active
[9]
  Ratio: 0.641

## O=C(NCC1CCCN(Cc2nc3ccccc3s2)C1)c1cc([N+](=O)[O-])c2cccnc2c1O (stereo not drawn)
[1]
  Activity: Active
[2]
  solubility: soluble
[3]
  inhibition: 53.4%
[4]
  Activity: Active
[5]
  Activity: Active
[6]
  EC50: 1330 µM
Cholinesterase [7]
  Ratio: 0.444
[8]
  Activity: Active
[9]
  inhibition: inactive

## COCCN(CC1CCN(Cc2nc3ccccc3o2)CC1)C(=O)c1cc([N+](=O)[O-])c2cccnc2c1O
[1]
  Activity: Active
[2]
  solubility: soluble
[3]
  inhibition: 34.9%
[4]
  Activity: Active
[5]
  Activity: Active
[6]
  EC50: 770 µM
Cholinesterase [7]
  Ratio: 0.805
[8]
  Activity: Active
[9]
  inhibition: inactive
[12]
  Activity: Not Active
[13]
  Activity: Not Active

## O=c1c(O)c(-c2ccc(O)c(O)c2)oc2cc(O)cc(O)c12 [QUERCETIN]
[6]
  EC50: 10.9 µM
